According to ChEMBL document CHEMBL1147253, “New polyoxygenated farnesylcyclohexenones, deacetoxyyanuthone A and its hydro derivative from the marine-derived fungus Penicillium sp” (2003):
In brackets after ≈: the same amount, converted by molar mass.

What was measured:
Type in all cases: functional
Details in all cases: read-out: ED50 (the source's name)
A549 = experiment: Cytotoxicity against human A549 cells
SK-OV-3 = experiment: Cytotoxicity against human SKOV3 cells
XF498 = experiment: Cytotoxicity against human XF498 cells
SK-MEL-2 = experiment: Cytotoxicity against human SK-MEL-2 cells
HCT-15 = experiment: Cytotoxicity against human HCT15 cells

CC(C)=CCC/C(C)=C/CC/C(C)=C/C[C@@]12O[C@@H]1[C@H](O)C(C)=CC2=O
EC50 (A549): 7.74 µg/mL (≈ 22.5 µM)
EC50 (SK-OV-3): 6.35 µg/mL (≈ 18.4 µM)
EC50 (XF498): 10 µg/mL (≈ 29.1 µM)
EC50 (SK-MEL-2): 3.86 µg/mL (≈ 11.2 µM)
EC50 (HCT-15): 10.1 µg/mL (≈ 29.2 µM)

CC(C)=CCC/C(C)=C\CC/C(C)=C\Cc1cc(O)c(C)cc1O
EC50 (A549): 4.73 µg/mL (≈ 14.4 µM)
EC50 (SK-OV-3): 5.31 µg/mL (≈ 16.2 µM)
EC50 (XF498): 5.94 µg/mL (≈ 18.1 µM)
EC50 (SK-MEL-2): 4.8 µg/mL (≈ 14.6 µM)
EC50 (HCT-15): 6.11 µg/mL (≈ 18.6 µM)

CC(C)=CCC/C(C)=C\CC/C(C)=C\CC1=CC(=O)C(C)=CC1=O
EC50 (A549): 25.4 µg/mL (≈ 77.9 µM)
EC50 (SK-OV-3): 37.3 µg/mL (≈ 114 µM)
EC50 (XF498): 38.1 µg/mL (≈ 117 µM)
EC50 (SK-MEL-2): 18.4 µg/mL (≈ 56.4 µM)
EC50 (HCT-15): 42.6 µg/mL (≈ 130 µM)

COc1cccc2c1C(=O)c1c(O)c3c(c(O)c1C2=O)C[C@@](O)(C(=O)CO)C[C@@H]3O[C@H]1C[C@H](N)[C@H](O)[C@H](C)O1 [DOXORUBICIN]
EC50 (A549): 0.02 µg/mL (≈ 0.0368 µM)
EC50 (SK-OV-3): 0.09 µg/mL (≈ 0.166 µM)
EC50 (XF498): 0.02 µg/mL (≈ 0.0368 µM)
EC50 (SK-MEL-2): 0.04 µg/mL (≈ 0.0736 µM)
EC50 (HCT-15): 0.79 µg/mL (≈ 1.45 µM)
